According to patent publication US20050271723A1, “Dosage forms for treatment of benign prostatic hyperplasia” (Threshold Pharmaceuticals, Inc., priority 2003, published 2005):
Entries after “also recorded” stand apart in the source; their conditions may differ.

Tests used:
[1] = tested on: actin, caspase 3, NF-κB, IκBα; assay: Protein levels of actin, caspase 3, NF-κB, IκBα in prostate cell lines (immunoblot); assay type: cell-based, human; conditions: except at 800 μM concentration
Protocol: Methods: Cells were plated at a density of 5×10^5 cells into a dish, and then maintained in 37° C. incubator (5% CO2) for 2 days. Prior to the assay, cells were rinsed twice with pre-warmed (37° C.) RPMI-1640 Medium (ATCC No. 30-2001; 10 mM HEPES; 1 mM sodium pyruvate; 2 mM L-glutamine; 4500 mg glucose/L; 1500 mg sodium bicarbonate/L). Cells were incubated with 2 ml culture medium in the absence or presence of lonidamine at different concentrations for 4 hours at 37° C. either under normoxia or hypoxia (oxygen level<0.1%). At the end of the incubation, the dish was placed on ice, and the cells were washed rapidly twice with cold PBS buffer (4° C.). For nuclear extracts, cells were lysed with buffer A (10 mM Tris, pH7.5; 1.5 mM MgCl2; 10 mM KCl and protease inhibitors and buffer C (0.5 M NaCl; 20 mM Tris pH7.5; 1.5 mM MgCl2; 20% glycerol and protease inhibitors), sequentially. The protease inhibitors used in the experiments were a cocktail of five protease inhibitors (500 mM AEBSF-HCl, 1 mg/ml Aprotinin, 1 mM E-64, 500 mM EDTA and 1 mM Leupeptin; Calbiochem NO 539131). For whole cell lysate, cells were lysed with 150 mM NaCl; 10 mM Tris ph7.5; 10 mM EDTA; 1% Triton X-100; 0.5% Deoxycholate, and protease inhibitors. The protein concentration was measured using a Bio-Rad protein assay. Equal amounts of protein were loaded on a SDS-PAGE gel. […]

[2] = tested on: HIF-1α; assay: HIF-1α expression in LNCaP cells (immunoblot of nuclear and whole cell extracts); assay type: cell-based, human; conditions: hypoxic conditions (oxygen level <0.1%)
Source text: (§1) See Franklin et al; 1995. […] 20108 USA. Methods: […]

[3] = tested on: LNCaP cells; assay: Apoptosis assay (caspase 3 activity) in LNCaP cells; assay type: cell-based, human; conditions: citrate-producing cells, 6 h
Protocol: (§2) Immunoblotting: Immunoblotting was carried out as described in Example 2. […] Apoptosis Assay: […] Lonidamine was added into each well at different concentrations, and then incubated for 6 h at 37° C. To assess the caspase 3 activity, the homogeneous buffer and caspase 3 substrate (Promega No G7791; Promega Corporation, 2800 Woods Hollow Road, Madison Wis. USA 53711) were added into each well in the presence or absence of caspase 3 inhibitor (Promega No G5961). The fluorescence intensity of cleaved substrate was determined using a fluorescence plate reader at excitation 485 nm and emission 530 nm.

[4] = higher doses of lonidamine; usually mild; cited from earlier work
[5] = tested on: PC3 cells; assay: Apoptosis assay (caspase 3 activity) in PC3 cells; assay type: cell-based, human; conditions: PC3, citrate-oxidizing cells; 6 h
Protocol: as §2

[6] = tested on: HIF-1α; assay: HIF-1α expression in PC3 cells (immunoblot of nuclear and whole cell extracts); assay type: cell-based, human; conditions: normoxic and hypoxic conditions, 4 hours, dose-dependent
Source text: as §1

[7] = tested on: human prostate epithelial cells; assay: Apoptosis assay in primary cultures of human prostate epithelial cells; assay type: cell-based
Protocol: (§3) Primary Cell Cultures: Primary cultures of human prostate epithelial cells (Cambrex No. CC-2555) and human prostate stromal cells (Cambrex No. CC-2508) were obtained from Cambrex Bio Science Rockland, Inc. (191 Thomaston Street, Rockland, Me. 04841). Apoptosis Assay: […] Lonidamine was added into each well at different concentrations, and then incubated for 6 h at 37° C. To assess the caspase 3 activity, the homogeneous buffer and caspase 3 substrate (Promega No G7791; Promega Corporation, 2800 Woods Hollow Road, Madison Wis. USA 53711) were added into each well in the presence or absence of caspase 3 inhibitor (Promega No G5961). The fluorescence intensity of cleaved substrate was determined using a fluorescence plate reader at excitation 485 nm and emission 530 nm.

[8] = tested on: human prostate stromal cells; assay: Apoptosis assay in primary cultures of human prostate stromal cells; assay type: cell-based; conditions: 6 h
Protocol: as §3

O=C(O)c1nn(Cc2ccc(Cl)cc2Cl)c2ccccc12 [lonidamine, 1-(2,4-dichlorobenzyl)-1H-indazole-3-carboxylic acid]
inhibition of protein levels of actin, caspase 3, NF-κB, or IκBα [1]: no detectable inhibition
effect on HIF-1α expression, LNCaP compared with PC3 cells [2]: more pronounced in LNCaP cells than in PC3 cells
activation of caspase 3 (apoptosis) [3]: induced activation of caspase 3
side effects [4]: myalgia and testicular pain
activation of caspase 3 (apoptosis), LNCaP compared with PC3 cells [5]: significantly greater in LNCaP cells
level of HIF-1α protein in nuclear and whole-cell extracts [6]: reduced the level of HIF-1α protein
induction of apoptosis, epithelial compared with stromal cells ([7]; primary cultures): significantly greater in primary cultures of prostate epithelial cells
induction of apoptosis ([7]; primary prostate epithelial cells, 6 h): induced apoptosis only in prostate epithelial cells in a dose-dependent manner; also recorded: induces apoptosis
induction of apoptosis [8]: induction of apoptosis was not observed
